# Assays:
# Type in all cases: in vivo, SD rats
# [1] = tested on: Gln in intestinal mucosa; assay: Gln in intestinal mucosa by ELISA, OXZ model rats; conditions: 100 mg/kg once per day, 11 days
# Description: (§1) Grouping: the experiment was carried out by using two ways of intracolonic and intragastric administration. […] There were 10 rats each group. Method for establishing rat model: referring to the Heller method, OXZ was used to induce the SD rat Crohn's disease model (abbreviated as “OXZ model”). Neck and back skin of rats were shaved (2 cm×2 cm). Ethanol was used to prepare 5% (w/v) OXZ solution, and 0.3 ml resultant OXZ solution was dripped on the skin of rats. After the solution was air-dried naturally, skin allergy occurred in rats. The sensitized rats were adaptively raised for 5 days, […] anesthetized by intraperitoneal injection of pentobarbital sodium. […] After completion, the rats were inverted by lifting tails for 60s to make the solution totally absorbed. […] If the rats manifested dark hair color, body weight loss, poor appetite, lassitude, watery stool or diarrhea, the model establishment was success. Administration method: after successful model establishment by OXZ, the drug was given to rats. The TCM preparation k saline solutions at corresponding dose were administered to the groups of preparation k of all doses and the […] saline solution, a positive drug, administrated to the positive control group. […] Serum IFN-γ, IL-4, and Gln in intestinal mucosa were determined by ELISA in rats.
# [2] = tested on: TNBS-induced SD rat Crohn's disease model; assay: DAI score in TNBS-caused Crohn's disease rat model; conditions: TNBS model rats, 100 mg/kg
# Description: Grouping: experiment was carried out by using two ways of intracolonic and intragastric administrations. […] There were 10 rats each group. Method for establishing rat model: referring to Morris method, TNBS was used to induce the SD rat Crohn's disease model (abbreviated as “TNBS model”). 24 hours before modeling, the SD rats were fasted but water was given. […] The rats of blank control group were normally fed with free access to water and the same volume of normal saline was given in the same administration routes by referring to the dosage regime of aforementioned treatment groups. The rats of model group were administrated with the same volume of normal saline in the same administration routes. […] (1) General Indices: weight change and stool (e.g. fecal occult blood, bloody stool and diarrhea) was observed every day to calculate DAI (disease activity index) score. DAI score=(weight loss percentage+stool character fraction+hematochezia fraction)/3 [table]
# [3] = tested on: IL-1; assay: Serum IL-1 by ELISA, TNBS model rats; conditions: 100 mg/kg once per day, 21 days
# Description: (§2) Grouping: experiment was carried out by using two ways of intracolonic and intragastric administrations. […] There were 10 rats each group. Method for establishing rat model: referring to Morris method, TNBS was used to induce the SD rat Crohn's disease model (abbreviated as “TNBS model”). 24 hours before modeling, the SD rats were fasted but water was given. […] The rats of blank control group were normally fed with free access to water and the same volume of normal saline was given in the same administration routes by referring to the dosage regime of aforementioned treatment groups. The rats of model group were administrated with the same volume of normal saline in the same administration routes. […] (2) Serum indices: after final administration, the testing rats were fasted but given water. 24 hours later, blood was gained from abdominal aorta. Serum IFN-γ, IL-1, IL-4, IL-10 and Gln in intestinal mucosa were determined by enzyme-linked immunosorbent assay (ELISA) in rats.
# [4] = tested on: IL-4; assay: Serum IL-4 by ELISA, OXZ model rats; conditions: 100 mg/kg once per day, 11 days
# Description: as §1
# [5] = tested on: IFN-γ; assay: Serum IFN-γ by ELISA, OXZ model rats; conditions: 100 mg/kg once per day, 11 days
# Description: as §1
# [6] = tested on: TNBS-induced SD rat Crohn's disease model; assay: Colon gross damage and histopathological score, TNBS model rats; conditions: 100 mg/kg
# Description: Grouping: experiment was carried out by using two ways of intracolonic and intragastric administrations. […] There were 10 rats each group. Method for establishing rat model: referring to Morris method, TNBS was used to induce the SD rat Crohn's disease model (abbreviated as “TNBS model”). 24 hours before modeling, the SD rats were fasted but water was given. […] The rats of blank control group were normally fed with free access to water and the same volume of normal saline was given in the same administration routes by referring to the dosage regime of aforementioned treatment groups. The rats of model group were administrated with the same volume of normal saline in the same administration routes. […] (3) Pathological indices: the colon of rats was taken out. The gross colon tissue damage was scored, subsequently examined and scored histopathologically by conventional HE staining. […] [table]
# [7] = tested on: IL-4; assay: Serum IL-4 by ELISA, TNBS model rats; conditions: 100 mg/kg once per day, 21 days
# Description: as §2
# [8] = tested on: Gln in intestinal mucosa; assay: Gln in intestinal mucosa by ELISA, TNBS model rats; conditions: 100 mg/kg once per day, 21 days
# Description: as §2
# [9] = tested on: IL-10; assay: Serum IL-10 by ELISA, TNBS model rats; conditions: 100 mg/kg once per day, 21 days
# Description: as §2
compound,measurement,setting,value
"Nc1ccc(O)c(C(=O)O)c1 [mesalamine, Mesalamine]",Gln in intestinal mucosa (Mean ± SD),[1]; intracolonic,124.06 ± 24.40 µmol/L
same,Gln in intestinal mucosa (Mean ± SD),[1]; intragastric,132.59 ± 41.74 µmol/L
same,DAI score (Mean ± SD),"[2]; intracolonic, 0th day (1 day before model established)",0.000 ± 0.000
same,DAI score (Mean ± SD),"[2]; intracolonic, 2nd day",1.867 ± 0.571
same,DAI score (Mean ± SD),"[2]; intracolonic, 3rd day",2.100 ± 0.754
same,DAI score (Mean ± SD),"[2]; intracolonic, 4th day",2.067 ± 0.7217
same,DAI score (Mean ± SD),"[2]; intracolonic, 5th day",1.733 ± 0.562
same,DAI score (Mean ± SD),"[2]; intracolonic, 6th day",1.367 ± 0.532
same,DAI score (Mean ± SD),"[2]; intracolonic, 7th day",1.267 ± 0.467
same,DAI score (Mean ± SD),"[2]; intracolonic, 8th day",1.167 ± 0.360
same,DAI score (Mean ± SD),"[2]; intracolonic, 9th day",1.067 ± 0.306
same,DAI score (Mean ± SD),"[2]; intracolonic, 10th day",1.000 ± 0.314
same,DAI score (Mean ± SD),"[2]; intracolonic, 11th day",0.933 ± 0.211
same,DAI score (Mean ± SD),"[2]; intracolonic, 12th day",0.833 ± 0.236
same,DAI score (Mean ± SD),"[2]; intracolonic, 13th day",0.833 ± 0.236
same,DAI score (Mean ± SD),"[2]; intracolonic, 14th day",0.767 ± 0.353
same,DAI score (Mean ± SD),"[2]; intracolonic, 15th day",0.733 ± 0.344
same,DAI score (Mean ± SD),"[2]; intragastric, 0th day (1 day before model established)",0.000 ± 0.000
same,DAI score (Mean ± SD),"[2]; intragastric, 2nd day",1.519 ± 0.412
same,DAI score (Mean ± SD),"[2]; intragastric, 3rd day",1.481 ± 0.380
same,DAI score (Mean ± SD),"[2]; intragastric, 4th day",1.333 ± 0.333
same,DAI score (Mean ± SD),"[2]; intragastric, 5th day",1.111 ± 0.333
same,DAI score (Mean ± SD),"[2]; intragastric, 6th day",1.037 ± 0.261
same,DAI score (Mean ± SD),"[2]; intragastric, 7th day",1.000 ± 0.236
same,DAI score (Mean ± SD),"[2]; intragastric, 8th day",0.963 ± 0.309
same,DAI score (Mean ± SD),"[2]; intragastric, 9th day",0.889 ± 0.289
same,DAI score (Mean ± SD),"[2]; intragastric, 10th day",0.741 ± 0.324
same,DAI score (Mean ± SD),"[2]; intragastric, 15th day",0.481 ± 0.242
same,DAI score (Mean ± SD),"[2]; intragastric, 16th day",0.481 ± 0.242
same,DAI score (Mean ± SD),"[2]; intragastric, 18th day",0.333 ± 0.236
same,DAI score (Mean ± SD),"[2]; intragastric, 19th day",0.259 ± 0.147
same,DAI score (Mean ± SD),"[2]; intragastric, 20th day",0.222 ± 0.167
same,IL-1 serum content (Mean ± SD),[3]; intracolonic,167.66 ± 26.95 pg/mL
same,IL-1 serum content (Mean ± SD),[3]; intragastric,154.59 ± 39.98 pg/mL
same,IL-4 serum content (Mean ± SD),[4]; intracolonic,86.63 ± 11.20 pg/mL
same,IL-4 serum content (Mean ± SD),[4]; intragastric,86.86 ± 7.84 pg/mL
same,IFN-γ serum content (Mean ± SD),[5]; intracolonic,85.85 ± 10.66 pg/mL
same,IFN-γ serum content (Mean ± SD),[5]; intragastric,81.88 ± 18.00 pg/mL
same,Gross damage score (Mean ± SD),[6]; intracolonic,0.500 ± 0.707
same,Histopathological score (Mean ± SD),[6]; intracolonic,1.00 ± 1.10
same,Gross damage score (Mean ± SD),[6]; intragastric,0.556 ± 0.527
same,Histopathological score (Mean ± SD),[6]; intragastric,0.83 ± 0.41
same,IL-4 serum content (Mean ± SD),[7]; intracolonic,96.80 ± 27.51 pg/mL
same,IL-4 serum content (Mean ± SD),[7]; intragastric,75.80 ± 17.47 pg/mL
same,Gln in intestinal mucosa (Mean ± SD),[8]; intracolonic,146.36 ± 28.11 µmol/L
same,Gln in intestinal mucosa (Mean ± SD),[8]; intragastric,158.74 ± 41.35 µmol/L
same,IL-10 serum content (Mean ± SD),[9]; intracolonic,88.06 ± 10.47 pg/mL
same,IL-10 serum content (Mean ± SD),[9]; intragastric,88.56 ± 16.77 pg/mL

# — US20160220602A1, “USE OF CHINESE MEDICINE PREPARATION IN PREPARING DRUG FOR PREVENTING AND/OR TREATING CROHN'S DISEASE” (TASLY PHARMACEUTICAL GROUP CO., LTD., priority 2013, published 2016)
